In US5348941A, “Stabilizers for fibroblast growth factors” (Merck & Co., Inc., priority 1992, dated 1994):

Tests used:
aFGF = molecular target: T1, aFGF (Homo sapiens, UniProt P05230); experiment: Copper-catalyzed oxidation of aFGF thiol groups; type: biochemical; settings: for Cu Oxidation (% SH Lost in 10 Mins): ligand 3X by weight, sodium sulfate 120 mM, tetrapolyphosphate 10 mM
T1 construct: The recombinant derived, 140 amino add form is the preferred form of aFGF; N-terminal methionine (MetHaFGF); made in house; host or cells: microbial cells (preferred embodiment)
T1 sequence (P05230 16-155 limits assumed): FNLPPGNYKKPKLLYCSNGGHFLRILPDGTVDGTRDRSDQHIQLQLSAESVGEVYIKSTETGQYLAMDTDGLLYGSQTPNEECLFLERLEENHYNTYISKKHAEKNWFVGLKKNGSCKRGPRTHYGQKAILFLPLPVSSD
Method: Copper-catalyzed oxidation of aFGF is carried out in the following manner. Acidic FGF (about 80 μg/ml) is incubated in a 20 mM Tris, 0.15M potassium chloride, pH 8 solution containing about 20 μM cuptic chloride for varying periods of time at room temperature. The reaction was terminated by the addition of 100 mM EDTA in the same buffer. A solution of about 0.7 ml of 0.25M Tris (about pH 8) containing about 2 mM EDTA and about 7 M GuHC1 is then added followed by about 35 μl of 4 mg/ml of DTNB (Sigma). Samples were incubated for 30 minutes, filtered through a 0.22 micron filter and the optical density measured at about 412 nm to determine sulfhydryl content, Riddles et al., Meth. Enzymol. 9:49-60 (1983). Relative standard deviation of the obtained values during time course experiments is 12%.
Acidic FGF contains three free cysteine residues at positions […], 83 and 117 in the polypeptide chain. […] It has also been shown that the copper catalyzed oxidative formation of a disulfide bond in the wild-type aFGF inactivates the protein in an in vitro mitogenic assay, Ortega et al., J. Biol. Chem. 266:5842-5846 (1991). Therefore, it was of interest to determine the extent to which heparin can stabilize aFGF against inactivation by oxidation. […] Samples contained 80 μg/ml aFGF with (a) 3X heparin by weight, (b) 0.1X heparin by weight and (c) buffer alone. As heparin was introduced and its concentration increased, the rate of copper-catalyzed oxidation decreased. For example, after 20 minutes, greater than 95% of the cysteine residues of aFGF are protected from oxidation with 3X heparin. FIG. 4B illustrates the fraction of remaining reactive thiol groups after a 10-minute incubation with cupric chloride as a function of heparin concentration.
Some aggregation of aFGF occurs under the conditions of these experiments presumably due to at least partial intermolecular disulfide formation. Thus, these measurements could simply be a measurement of the loss of solubility induced by copper association with aFGF. Several experiments, however, argue against this possibility. First, previous work has shown that at dilute protein concentration, copper does indeed catalyze oxidation of thiol groups of aFGF, Ortega et al., J. Biol. Chem. 266:5842-5846 (199 1 ). Second, as a control experiment, the copper-catalyzed oxidation of aFGF was carded out in a buffer containing 6 M GuHCl. Under these denaturing conditions, nearly 100% of the thiol groups in solution were lost after 10 minutes without visible aggregation. […] Regardless of the precise mechanism, copper addition is a distinct mechanism of inactivation compared to thermal stress.
Similar protection against oxidation experiments were carried out with other negatively charged compounds with an excess of ligand (3X by weight except for sodium sulfate at 120 mM and tetrapolyphosphate at 10 mM) added to aFGF before copper catalyzed oxidation. As shown in the second column of Table 2, all of these agents at least partially protect the cysteine residues of aFGF from oxidation.
^(b) Percentage of aFGF thiols remaining in solution after 10 min
incubation with cupric chloride. Experimental conditions are described in
FIG. 10. All samples contained ligand at 3× (by weight) except
sodium sulfate (120 mM) and tetrapolyphosphate (10 mM).

[1] = test system: BALB/c 3T3 A31 fibroblasts; experiment: Fibroblast mitogenic assay ([3H]-thymidine incorporation into DNA); type: cell-based; set-up: Bioactivity (mitogenic activity of aFGF in the presence of ligand): unit not given here; settings: for mitogenic activity of aFGF: absence of heparin; for Bioactivity (mitogenic activity of aFGF in the presence of ligand): complete absence of heparin, < = response did not plateau, * = cell death observed
Method: Biological activity of the formulation of the instant invention is determined by a modification of the fibroblast mitogenic assay as described by Linemeyer et al. in European Patent Application, Publication No. 259,953. BALB/c 3T3 A31 fibroblasts (American Type Culture Collection) are plated at about 3×10^5 cells per 32 cm^2 wells in culture media containing about 10% heat-inactivated calf serum and incubated in about 7% CO2 (pH 7.35±0.05). The cells become fully quiescent by replacing the media with serum free media at about 6, about 24 hours and about 48 hours later. At about 53 hours after plating samples of the various formulations are added and about 0.12 μg of dexamethasone are added. At about 65 hours each well is supplemented with about 0.4 μCi of [methyl-^3 H]-thymidine (20 Ci/mmole, Dupont) and 0.6 μg of unlabeled thymidine (Sigma), and at 80 hours the cells are processed for determination of radiolabel incorporation into DNA. Each dose-response point is the average of at least quadruplicate determinations. Other cell types such vascular endothelial cells and corneal endothelial cells can be employed to determine in vitro mitogenicity. The procedures are described in detail by Thomas et al., Proc. Natl. Acad. Sci. USA 82:6409-6431 (1985).
^(d) Mitogenic activity of aFGF was measured in the presence of ligan
indicated in the complete absence of heparin.
*indicates cell death observed during assay.
Biological activity of the formulation of the instant invention was determined by a modification of the fibroblast mitogenic assay as described by Linemeyer et al. in European Patent Application, Publication No. 259,953. BALB/c 3T3 A31 fibroblasts (American Type Culture Collection) were plated at 3×10^5 cells per 32 cm^2 well in culture media containing about 10% heat-inactivated calf serum and incubated in 7% CO2 (pH 7.35±0.05). The cells become fully quiescent by replacing the media with serum free media at 6, 24 hours and 48 hours later. At 53 hours after plating samples of the various formulations were added and 0.12 μg of dexamethasone was added, at 65 hours each well was supplemented with 0.4 μCi of [methyl-^3 H]-thymidine (20 Ci/mmole, Dupont) and 0.6 μg of unlabeled thymidine (Sigma), and at 80 hours the cells were processed for determination of radiolabel incorporation into DNA. Each dose-response point is the average of at least quadruplicate determinations. Other cell types such vascular endothelial cells and corneal endothelial cells can be employed to determine in vitro mitogenidty. The procedures are described in detail by Thomas et al., Proc. Natl. Acad. Sci. USA 82:6409-6431 (1985).

| Compound | Cu Oxidation (% SH Lost in 10 Mins) (aFGF) [%] | Cu Oxidation (% SH Lost in 10 Mins) (aFGF; listed as inositol hexaphosphate) | mitogenic activity of aFGF [1] | Bioactivity (mitogenic activity of aFGF in the presence of ligand) [1] | cysteine residues of aFGF protected from oxidation (aFGF; 3X heparin, 20 minutes) | stabilization against copper-catalyzed oxidation (aFGF; 10-minute incubation, 1/3 weight level of heparin) |
| --- | --- | --- | --- | --- | --- | --- |
| O=P(O)(O)O[C@H]1[C@H](OP(=O)(O)O)[C@@H](OP(=O)(O)O)[C@H](OP(=O)(O)O)[C@@H](OP(=O)(O)O)[C@H]1OP(=O)(O)O [Inositol hexaphosphate, inositol hexaphosphate] | < 3 | less than 3% | did not show any appreciable mitogenic activity | < 0.6 |  |  |
| O=S(=O)(O)OC1C(OS(=O)(=O)O)C(OS(=O)(=O)O)C(OS(=O)(=O)O)C(OS(=O)(=O)O)C1OS(=O)(=O)O (stereo not shown) [Inositol hexasulfate, inositol hexasulfate] | 22 |  |  | 2.3 |  |  |
| O=P(O)(O)OP(=O)(O)OP(=O)(O)OP(=O)(O)O [Tetrapolyphosphate] | < 3 |  | did not show any appreciable mitogenic activity | < 0.25 |  |  |
| dextran sulfate | 7 |  |  | 5.0 |  |  |
| heparin [reference compound] | < 3 |  |  | 4.2 | greater than 95% | stabilization essentially complete at 1/3 weight levels of heparin |
| low molecular weight heparin [Low MW heparin, reference compound] | < 3 |  |  | 4.0 |  |  |
| sulfated β-cyclodextrin | < 3 |  |  | 3.7 |  |  |
